According to US9198420B2, “Rodenticidal norbormide analogues” (priority 2012, dated 2015):
Read-outs that look alike come from different tables or passages of the source.

What was measured:
rat caudal artery = test: Rat caudal artery ring contractile force (vasoconstrictory activity); design: species or system rat (male Wistar)
Experimental: Male Wistar rats (150-250 g) were obtained from Charles River Italia (Milano, Italy) and killed by decapitation. Ventral caudal artery was isolated, placed in Tyrode solution at room temperature and cleaned of extraneous fatty and connective tissue under a dissection microscope. All vessels were cut into rings 2 mm long, mounted on a custom-built plexiglass support by means of two intraluminal tungsten wires and placed in 20 mL double-jacketed organ baths filled with Tyrode solution of the following composition (mM): NaCl 125, KCl 5, CaCl2 2.7, MgSO4 1, KH2PO4 1.2, NaHCO3 25 and glucose 11, maintained at 37° C., pH 7.35, bubbled with 95% O2 and […]. The endothelium was removed by gently rubbing the lumen of the rings with a very thin rough-surfaced tungsten wire (caudal artery). The mechanical activity of the rings was detected by means of an isometric force transducer (Ugo Basile, Comerio, Italy) coupled to a pen recorder (Ugo Basile, Comerio, Italy). Rings were passively stretched to impose a resting tension (2 g) and were allowed to equilibrate for 60 min. After equilibration, each ring was repeatedly simulated with both KCl (90 mM) and phenylephrine (10 μM) until reproducible responses were obtained. To verify the absence of the endothelium, rings contracted with 1 μM phenylephrine were exposed to […] carbamylcholine. […] Each compound was tested for the vasoconstrictor activity at a concentration of 50 μM, which has been previously reported to be the one evoking the maximal response to norbormide. The contractile responses to the compounds were expressed as percent of the 90 mM KCl response.

Sprague Dawley rats = test: In vivo lethality, oral gavage; design: species or system rat (Sprague Dawley); conditions: 40 mg/Kg, rat, n = 2
Experimental: Sprague Dawley rats (150-200 g) were used to appraise the rodenticidal activity of the compounds put forward for in vivo evaluation. Briefly, prior to administration the compounds were dissolved in 0.2 M hydrochloric acid (5% DMSO overall), to the desired dose, and without delay either injected intravenously, via the tail, or orally gavaged. All treated animals were housed in a quiet room and monitored every minute (i.v) or every 15 min (oral) to verify early signs of toxicity.

[1] = Table 1, read-out: Vasoconstriction: maximum contractile effect as a % of 90 mM KCl contraction
[2] = Table 7, compounds of formula (V)

Row | Compound | Vasoconstriction: maximum contractile effect as a % of 90 mM KCl contraction (rat caudal artery; Table 1, compound at 50 μM) | also measured
1 | O=C(CN1C(=O)C2C3C=C(C(O)(c4ccccc4)c4ccccn4)C(C3=C(c3ccccc3)c3ccccn3)C2C1=O)OCC=Cc1ccccc1 (stereo not drawn) [Compound 371, N-Cinnamoxycarbonylmethyl-5-(α-hydroxy-α-2-pyridylbenzyl)-7-(α-2-pyridylbenzylidene)-5-norbornene-2,3-dicarboximide] |  | Emax (rat caudal artery; Table 3, read-out: Vasoconstriction: maximum contractile effect as a % of 90 mM KCl contraction): 0%; Vasoconstriction: maximum contractile effect as a % of 90 mM KCl contraction (rat caudal artery; Table 4, pre-cleavage, n = 3): 0%; In vivo lethality (oral) (Sprague Dawley rats): no^h
2 | COc1ccc(C=CC(=O)OCCN2C(=O)C3C4C=C(C(O)(c5ccccc5)c5ccccn5)C(C4=C(c4ccccc4)c4ccccn4)C3C2=O)cc1OC (centres unmarked) [Compound 132] | 120% | 
3 | O=C(C=Cc1ccccc1)NCCN1C(=O)C2C3C=C(C(O)(c4ccccc4)c4ccccn4)C(C3=C(c3ccccc3)c3ccccn3)C2C1=O (stereo not drawn) [Compound 365, N-2′-Cinnamamidoethyl-5-(α-hydroxy-α-2-pyridylbenzyl)-7-(α-2-pyridylbenzylidene)-5-norbornene-2,3-dicarboximide] |  | Vasoconstriction: maximum contractile effect as a % of 90 mM KCl contraction (rat caudal artery; Table 2, compound at 50 μM): 43%
4 | COc1cccc(C=CC(=O)OCCN2C(=O)C3C4C=C(C(O)(c5ccccc5)c5ccccn5)C(C4=C(c4ccccc4)c4ccccn4)C3C2=O)c1 (stereo not drawn) [Compound 125, 5-(α-1-hydroxy-α-2-pyridylbenzyl)-N-[2′-(3″-methoxycinnamoyloxy)ethyl]-7-(α-2-pyridylbenzylidene)-5-norbornene-2,3-dicarboximide] | 80% | 
5 | COc1cccc(C(=O)OCCN2C(=O)C3C4C=C(C(O)(c5ccccc5)c5ccccn5)C(C4=C(c4ccccc4)c4ccccn4)C3C2=O)c1 (stereo not drawn) [Compound 115, 5-(α-Hydroxy-α-2-pyridylbenzyl)-N-2′-m-methoxybenzoyloxyethyl-7-(α-2-pyridylbenzylidene)-5-norbornene-2,3-dicarboximide] | 52% | 
6 | O=C(OCOCCN1C(=O)C2C3C=C(C(O)(c4ccccc4)c4ccccn4)C(C3=C(c3ccccc3)c3ccccn3)C2C1=O)C(c1ccccc1)c1ccccc1 (stereo not drawn) [Compound 201, N-[2′-(Diphenylacetyloxymethyloxy)ethyl]-5-(α-hydroxy-α-2-pyridylbenzyl)-7-(α-2-pyridylbenzylidene)-5-norbornene-2,3-dicarboximide] |  | Emax (rat caudal artery; [1]): ≥ 132%
7 | O=C(C=Cc1ccc2ccccc2c1)OCCN1C(=O)C2C3C=C(C(O)(c4ccccc4)c4ccccn4)C(C3=C(c3ccccc3)c3ccccn3)C2C1=O (stereo not drawn) [Compound 188, 5-(α-Hydroxy-α-2-pyridylbenzyl)-N-[2′-(2″-naphthylacryloyloxy)ethyl]-7-(α-2-pyridylbenzylidene)-5-norbornene-2,3-dicarboximide] | 0% | 
8 | O=C(CCC(=O)Oc1ccccc1)OCCN1C(=O)C2C3C=C(C(O)(c4ccccc4)c4ccccn4)C(C3=C(c3ccccc3)c3ccccn3)C2C1=O (stereo not drawn) [Compound 204, 5-(α-Hydroxy-α-2-pyridylbenzyl)-N-2′-(monophenyl)succinoyloxyethyl-7-(α-2-pyridylbenzylidene)-5-norbornene-2,3-dicarboximide] | 0% | 
9 | CCCC(=O)OCCN1C(=O)C2C3C=C(C(O)(c4ccccc4)c4ccccn4)C(C3=C(c3ccccc3)c3ccccn3)C2C1=O (stereo not drawn) [Compound 110, N-2′-Butanoyloxyethyl-5-(α-hydroxy-α-2-pyridylbenzyl)-7-(α-2-pyridylbenzylidene)-5-norbornene-2,3-dicarboximide] | ≧132% | 
10 | CC(O)CN1C(=O)C2C3C=C(C(O)(c4ccccc4)c4ccccn4)C(C3=C(c3ccccc3)c3ccccn3)C2C1=O (stereo not drawn) [Compound 103, N-2′-Hydroxypropyl-5-(α-hydroxy-α-2-pyridylbenzyl)-7-(α-2-pyridylbenzylidene)-5-norbornene-2,3-dicarboximide] |  | Vasoconstriction: maximum contractile effect as a % of 90 mM KCl contraction (rat caudal artery; [2]): 67%; Vasoconstriction: maximum contractile effect as a % of 90 mM KCl contraction (rat caudal artery; n = 3, Table 8): 67%
11 | COc1ccccc1C(=O)OCCN1C(=O)C2C3C=C(C(O)(c4ccccc4)c4ccccn4)C(C3=C(c3ccccc3)c3ccccn3)C2C1=O (stereo not drawn) [Compound 114, 5-(α-Hydroxy-α-2-pyridylbenzyl)-N-2′-o-methoxybenzoyloxyethyl-7-(α-2-pyridylbenzylidene)-5-norbornene-2,3-dicarboximide] | ≧132% | 
12 | CCCCCCCCCCCC(=O)OCN1C(=O)C2C3C=C(C(O)(c4ccccc4)c4ccccn4)C(C3=C(c3ccccc3)c3ccccn3)C2C1=O (stereo not drawn) [Compound 11, N-Dodecanoyloxymethyl-5-(α-hydroxy-α-2-pyridylbenzyl)-7-(α-2-pyridylbenzylidene)-5-norbornene-2,3-dicarboximide] |  | Emax (rat caudal artery; [1]): 0%; Vasoconstriction: maximum contractile effect as a % of 90 mM KCl contraction (rat caudal artery; Table 4, pre-cleavage, n = 3): 0%
13 | O=C(CCc1ccccc1)OCCN1C(=O)C2C3C=C(C(O)(c4ccccc4)c4ccccn4)C(C3=C(c3ccccc3)c3ccccn3)C2C1=O (stereo not drawn) [Compound 119, N-2′-Dihydrocinnamoyloxyethyl-5-(α-hydroxy-α-2-pyridylbenzyl)-7-(α-2-pyridylbenzylidene)-5-norbornene-2,3-dicarboximide] | ≧132% | 
14 | CN(C)c1ccc(C=CC(=O)OCCN2C(=O)C3C4C=C(C(O)(c5ccccc5)c5ccccn5)C(C4=C(c4ccccc4)c4ccccn4)C3C2=O)cc1 (centres unmarked) [Compound 131] | 30% | 
15 | O=C(Cc1ccccc1)OCCN1C(=O)C2C3C=C(C(O)(c4ccccc4)c4ccccn4)C(C3=C(c3ccccc3)c3ccccn3)C2C1=O (stereo not drawn) [Compound 117, 5-(α-Hydroxy-α-2-pyridylbenzyl)-N-2′-phenylacetyloxyethyl-7-(α-2-pyridylbenzylidene)-5-norbornene-2,3-dicarboximide] | ≧132% | 
16 | O=C1C2C3C=C(C(O)(c4ccccc4)c4ccccn4)C(C3=C(c3ccccc3)c3ccccn3)C2C(=O)N1CCCCO (stereo not drawn) [Compound 105, N-4′-Hydroxybutyl-5-(α-hydroxy-α-2-pyridylbenzyl)-7-(α-2-pyridylbenzylidene)-5-norbornene-2,3-dicarboximide] |  | Vasoconstriction: maximum contractile effect as a % of 90 mM KCl contraction (rat caudal artery; [2]): 100%; Vasoconstriction: maximum contractile effect as a % of 90 mM KCl contraction (rat caudal artery; n = 3, Table 8): 100%
17 | O=C(/C=C/C=C/c1ccccc1)OCCN1C(=O)C2C3C=C(C(O)(c4ccccc4)c4ccccn4)C(C3=C(c3ccccc3)c3ccccn3)C2C1=O (stereo not drawn) [Compound 187, 5-(α-Hydroxy-α-2-pyridylbenzyl)-N-[2′-(5″-phenyl-2″E,4″E-pentadienoyloxy)ethyl]-7-(α-2-pyridylbenzylidene)-5-norbornene-2,3-dicarboximide] | 0% | 
18 | O=C(OCCN1C(=O)C2C3C=C(C(O)(c4ccccc4)c4ccccn4)C(C3=C(c3ccccc3)c3ccccn3)C2C1=O)c1ccccc1 (stereo not drawn) [Compound 113, N-2′-Benzoyloxyethyl-5-(α-hydroxy-α-2-pyridylbenzyl)-7-(α-2-pyridylbenzylidene)-5-norbornene-2,3-dicarboximide] | ≧132% | 
19 | COc1ccc(C(=O)OCCN2C(=O)C3C4C=C(C(O)(c5ccccc5)c5ccccn5)C(C4=C(c4ccccc4)c4ccccn4)C3C2=O)cc1 (stereo not drawn) [Compound 116, 5-(α-Hydroxy-α-2-pyridylbenzyl)-N-2′-p-methoxybenzoyloxyethyl-7-(α-2-pyridylbenzylidene)-5-norbornene-2,3-dicarboximide] | ≧132% | 
20 | CC(C)(C)C(=O)OCCN1C(=O)C2C3C=C(C(O)(c4ccccc4)c4ccccn4)C(C3=C(c3ccccc3)c3ccccn3)C2C1=O (stereo not drawn) [Compound 109, 5-(α-Hydroxy-α-2-pyridylbenzyl)-N-2′-pivaloyloxyethyl-7-(α-2-pyridylbenzylidene)-5-norbornene-2,3-dicarboximide] | ≧132% | 
21 | Cc1ccc(C=CC(=O)OCCN2C(=O)C3C4C=C(C(O)(c5ccccc5)c5ccccn5)C(C4=C(c4ccccc4)c4ccccn4)C3C2=O)cc1 (centres unmarked) [Compound 128] | 42% | 
